ChEMBL document CHEMBL5096221, “Discovery of a Highly Potent and Orally Bioavailable STAT3 Dual Phosphorylation Inhibitor for Pancreatic Cancer Treatment” (J Med Chem, 2022)
Activity calls are given as the source filed them. No cut-off for these calls is given here.

Tests used:
[1] = Microsomal stability in rat liver microsomes assessed as half life incubated upto 40 mins in presence of NADPH by LC-MS/MS analysis; format: ADME, Microsome
[2] = Microsomal stability in dog liver microsomes assessed as half life incubated upto 40 mins in presence of NADPH by LC-MS/MS analysis; format: ADME, Canis lupus familiaris, Microsome
[3] = Microsomal stability in human liver microsomes assessed as intrinsic clearance incubated upto 40 mins in presence of NADPH by LC-MS/MS analysis; format: ADME, Microsome; settings: read-out: CLH
[4] = Microsomal stability in dog liver microsomes assessed as intrinsic clearance incubated upto 40 mins in presence of NADPH by LC-MS/MS analysis; format: ADME, Canis lupus familiaris, Microsome; settings: read-out: CLH
[5] = Microsomal stability in rat liver microsomes assessed as compound remaining incubated for 60 mins in presence of NADPH by LC-MS/MS analysis; format: ADME, Microsome; settings: read-out: Stability
Cytochrome P450 1A2 = target: T1, Cytochrome P450 1A2 (Homo sapiens, UniProt P05177); assay: Inhibition of CYP1A2 in human liver microsomes using phenacetin as substrate incubated for 30 mins in presence of NADPH by HPLC analysis; format: ADME, Microsome
T1 sequence (P05177 whole entry): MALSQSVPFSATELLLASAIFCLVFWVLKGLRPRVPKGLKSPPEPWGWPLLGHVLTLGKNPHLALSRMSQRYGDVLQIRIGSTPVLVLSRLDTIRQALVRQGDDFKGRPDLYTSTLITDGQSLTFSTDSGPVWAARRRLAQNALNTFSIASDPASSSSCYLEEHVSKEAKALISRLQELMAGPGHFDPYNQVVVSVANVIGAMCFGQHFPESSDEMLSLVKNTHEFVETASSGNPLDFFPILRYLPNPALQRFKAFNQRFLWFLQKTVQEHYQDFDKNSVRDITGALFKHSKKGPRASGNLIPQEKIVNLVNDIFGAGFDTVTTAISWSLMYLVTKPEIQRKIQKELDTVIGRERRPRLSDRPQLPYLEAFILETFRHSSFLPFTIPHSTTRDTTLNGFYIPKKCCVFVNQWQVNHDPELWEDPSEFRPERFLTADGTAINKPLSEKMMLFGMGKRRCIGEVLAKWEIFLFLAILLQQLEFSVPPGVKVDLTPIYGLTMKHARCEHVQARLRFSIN

[6] = AUC (0-24hrs) in BALB/c mouse at 1 mg/kg,iv measured upto 24 hrs by LC-MS/MS analysis; format: ADME, organism-based; parameters: time < 24 hrs, dose 1 mg/kg, route iv; settings: in vivo
[7] = Volume of distribution at steady state in BALB/c mouse at 1 mg/kg,iv measured upto 24 hrs by LC-MS/MS analysis; format: ADME, organism-based; settings: BALB/c, in vivo, read-out: Vdss
[8] = target: T2, Signal transducer and activator of transcription 3 (Homo sapiens, UniProt P40763); assay: Inhibition of STAT3 in human BXPC-3 cells assessed as inhibition of STAT3 phosphorylation at Ser 727 at 1 to 30 nM incubated for 22 to 24 hrs by western blot analysis; format: cell-based; settings: dose 1-30 nM, time 22-24 hrs, DDE = dose-dependent effect
T2 sequence (P40763 whole entry): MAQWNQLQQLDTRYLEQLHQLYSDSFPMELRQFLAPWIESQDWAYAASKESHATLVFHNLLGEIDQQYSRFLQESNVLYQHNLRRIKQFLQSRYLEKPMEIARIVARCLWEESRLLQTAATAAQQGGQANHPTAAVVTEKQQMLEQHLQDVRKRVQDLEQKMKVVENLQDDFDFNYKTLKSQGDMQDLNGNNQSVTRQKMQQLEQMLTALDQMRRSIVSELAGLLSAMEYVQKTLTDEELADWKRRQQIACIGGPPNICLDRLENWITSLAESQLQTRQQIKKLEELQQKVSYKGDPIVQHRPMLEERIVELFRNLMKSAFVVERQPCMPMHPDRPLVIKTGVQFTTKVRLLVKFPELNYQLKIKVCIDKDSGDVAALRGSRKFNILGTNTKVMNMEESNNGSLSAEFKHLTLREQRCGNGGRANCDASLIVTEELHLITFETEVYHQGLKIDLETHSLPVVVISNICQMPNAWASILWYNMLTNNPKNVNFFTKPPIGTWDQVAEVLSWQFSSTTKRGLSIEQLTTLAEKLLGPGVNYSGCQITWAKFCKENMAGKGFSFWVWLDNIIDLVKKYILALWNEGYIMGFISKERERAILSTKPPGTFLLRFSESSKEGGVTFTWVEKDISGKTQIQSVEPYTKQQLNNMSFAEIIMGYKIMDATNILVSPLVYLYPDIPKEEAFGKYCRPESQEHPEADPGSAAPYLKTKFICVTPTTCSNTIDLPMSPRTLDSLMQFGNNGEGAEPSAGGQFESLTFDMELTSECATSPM

[9] = target: T2, Signal transducer and activator of transcription 3; assay: Inhibition of STAT3 in human Capan-2 cells assessed as inhibition of STAT3 phosphorylation at Tyr 705 at 1 to 30 nM incubated for 22 to 24 hrs by western blot analysis; format: cell-based; settings: dose 1-30 nM, time 22-24 hrs, DDE = dose-dependent effect
[10] = target: T2, Signal transducer and activator of transcription 3; assay: Inhibition of STAT3 in human Capan-2 cells assessed as inhibition of STAT3 phosphorylation at Ser 727 at 30 nM incubated for 4 to 24 hrs by western blot analysis; format: cell-based; settings: time 4-24 hrs, TDE = time-dependent effect
[11] = target: T2, Signal transducer and activator of transcription 3; assay: Inhibition of STAT3 in human BXPC-3 cells assessed as inhibition of STAT3 phosphorylation at Tyr 705 at 10 nM incubated for 22 to 24 hrs by western blot analysis; format: cell-based; settings: time 22-24 hrs
[12] = target: T2, Signal transducer and activator of transcription 3; assay: Inhibition of STAT3 in human Capan-2 cells assessed as inhibition of STAT3 phosphorylation at Tyr 705 at 10 nM incubated for 22 to 24 hrs by western blot analysis; format: cell-based; settings: time 22-24 hrs
[13] = target: T2, Signal transducer and activator of transcription 3; assay: Inhibition of STAT3 in human Capan-2 cells assessed as inhibition of STAT3 phosphorylation at Ser 727 at 10 nM incubated for 22 to 24 hrs by western blot analysis; format: cell-based; settings: time 22-24 hrs
[14] = target: T3, Mitogen-activated protein kinase 13 (Homo sapiens, UniProt O15264); assay: Inhibition of p38delta (unknown origin)
T3 sequence (O15264 whole entry): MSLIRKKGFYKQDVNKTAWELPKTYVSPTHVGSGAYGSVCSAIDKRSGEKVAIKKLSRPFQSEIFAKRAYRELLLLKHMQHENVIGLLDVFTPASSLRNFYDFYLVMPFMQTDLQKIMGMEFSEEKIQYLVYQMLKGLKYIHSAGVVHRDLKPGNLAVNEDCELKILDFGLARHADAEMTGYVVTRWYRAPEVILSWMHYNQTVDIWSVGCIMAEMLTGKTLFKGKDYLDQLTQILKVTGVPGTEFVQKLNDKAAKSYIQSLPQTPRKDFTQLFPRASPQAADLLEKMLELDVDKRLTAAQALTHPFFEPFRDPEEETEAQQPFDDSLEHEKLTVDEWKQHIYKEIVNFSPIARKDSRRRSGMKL

[15] = target: T2, Signal transducer and activator of transcription 3; assay: Inhibition of STAT3 in human BXPC-3 cells assessed as inhibition of IL-6 stimulated STAT3 phosphorylation at Tyr 705 at 1 to 30 nM by western blot assay; format: cell-based; settings: dose 1-30 nM, DDE = dose-dependent effect
CFPAC-1 = assay: Inhibition of mitochondrial respiration in human CFPAC-1 cells assessed as reduction in oxygen consumption rate at 1 to 30 nM incubated for 1 hr by seahorse XF96 flux analyzer; format: functional, cell-based; settings: dose 1-30 nM, DDE = dose-dependent effect
MIA PaCa-2 = assay: Anti-proliferative activity against human MIA PaCa-2 cells assessed as cell growth inhibition incubated for 72 hrs by MTS assay; format: functional, cell-based; settings: MIA PaCa-2, 72 h
PC-3 = assay: Inhibition of colony formation in human PC-3 cells at 1000 nM incubated for 5 to 7 days by crystal violet staining assay; format: functional, cell-based; settings: time 5-7 day
BXPC-3 = assay: Antitumor activity against human BXPC-3 cells xenografted BALB/c mouse model assessed as tumor growth inhibition at 10 mg/kg,po administrated once daily for 8 weeks; format: functional; settings: BXPC-3, 1344 h, read-out: TGI
Mus musculus = assay: In vivo inhibition of STAT3 in BALB/c mouse xenografted with human BXPC-3 cells assessed as inhibition of STAT3 phosphorylation at Ser 727 at 10 mg/kg,po administrated once daily for 8 weeks by immunohistochemical analysis; format: functional, organism-based
[16] = Toxicity in BALB/c mouse xenografted with human BXPC-3 cells assessed as effect on heart at 10 mg/kg,po administrated once daily for 8 weeks by H and E staining based microscopic analysis; format: organism-based; settings: in vivo, 1344 h
[17] = Toxicity in BALB/c mouse xenografted with human BXPC-3 cells assessed as effect on spleen at 30 mg/kg,po administrated once daily for 8 weeks by H and E staining based microscopic analysis; format: organism-based; settings: in vivo, 1344 h
[18] = target: T2, Signal transducer and activator of transcription 3; assay: Thermal stabilization of STAT3 in human BXPC-3 cells at 10 microM at 47.4 degreeC incubated for 1 hrs by cellular thermal shift assay; format: cell-based

half-life [1]: 82.1 min | half-life [2]: 75.3 min | microsomal CLint [3]: 18.3 µL/min/mg | microsomal CLint [4]: 18.4 µL/min/mg | remaining at 1 h [5]: 60.5% | IC50 (Cytochrome P450 1A2): > 50 µM | AUC(0-t) at 24 h [6]: 9510 ng·h/mL | Vd [7]: 1.27 L/kg | inhibition [8]: Dde | inhibition [9]: Dde | inhibition [10]: Tde | inhibition [11]: Active | inhibition [12]: Active | inhibition [13]: Active | IC50 [14]: > 10 µM | inhibition [15]: Dde | IC50 (MIA PaCa-2): 2.1 nM | Activity [18]: Active
Structure (SMILES): COc1ccc(-c2noc(-c3cnc(Oc4ccc5cc(C(=O)N6CCN(Cc7ccc(OCC(F)(F)F)cc7)CC6)n(C)c5c4)cn3)n2)cc1
inhibition (CFPAC-1): Dde | inhibition (PC-3): Active | inhibition in vivo at 10 mg/kg (BXPC-3): 69.2% | inhibition (Mus musculus): Active | Activity [16]: Non-Toxic | Activity [17]: Non-Toxic
